These results are taken from US20190359560A1, “ANTI-INFLAMMATORY DRUG AND USES THEREOF” (KYUSHU UNIVERSITY, NATIONAL UNIVERSITY CORPORATION, priority 2015, published 2019).

Data set [1] relates to G0S2 promoter (−2030→+10). The experiment in a line: G0S2 promoter (−2030→+10) luciferase assay in Hepa1-6 cells. It is filed as cell-based, mouse. Conditions: Hepa1-6 reporter cells, 10 μM, 24 hours. The method, then: To get closer to the environment in the liver, a cell stably expressing an expression cassette in which a luciferase gene was ligated to the downstream side of the G0S2 promoter (−2030→+10) was constructed in the Hepa1-6 cell, which is a mouse hepatoma-derived cell. Using this cell, an effect of the candidate compounds on the luciferase activity was evaluated in the same manner as in the primary screening described above.

A further data set deals with Bmal1 promoter. Put plainly: Bmal1 promoter luciferase assay in MEF cell line. It is filed as cell-based. Conditions: MEF reporter cell line, 10 μM, 24 hours. The method, then: Therefore, in order to exclude compounds having an effect on clock genes in normal cells, studies were conducted using the MEF cell line stably expressing an expression cassette in which a luciferase gene was ligated to the downstream side of the Bmal1 promoter.

Data set [2] has as its system G0S2 mRNA. The experiment in a line: G0S2 mRNA expression in Hepa1-6 cells (qRT-PCR). The data set is classed as cell-based, mouse. Conditions: 48 hours. Here is the method:
The effect of the compound on the expression level of mRNA of the G0S2 gene was evaluated for the three compounds extracted so far. 24 hours after seeding with Hepa1-6 cells, the cells were exposed to hit compounds at 10 μM and sampling and total RNA extraction were carried out 24 hours later. Subsequently, changes in the expression level of mRNA of the G0S2 gene were measured by a qRT-PCR method.
Hepa1-6 cells were exposed to 10 μM of each of seven derivatives of Compound No. 2 (Examples 2 and 4 to 9) and an effect of the derivative compounds on the expression level of G0S2 mRNA after 24 hours was evaluated.
Therefore, Hepa1-6 cells were exposed to Compound No. 2 and the compound of Example 2 (NS-3-011) in the range of 0.5 to 5 μM and an effect of the compounds on the expression level of endogenous G0S2 mRNA after 48 hours was evaluated.
Subsequently, Hepa1-6 cells were transfected with siRNA against Hsd17b4 or control siRNA in the presence (10 μM) or absence (indicated as “DMSO” in FIG. 22B) of Compound No. 2. Subsequently, each cell was recovered after 48 hours and total RNA was extracted. Subsequently, the expression level of the G0S2 gene was quantified by real-time PCR.
A general note: Quantitative PCR measures a nucleic acid by following its amplification.

Data set [3] relates to nuclear receptor RARα mRNA. The experiment in a line: RARα mRNA expression in Hepa1-6 cells (qRT-PCR). The data set is classed as cell-based, mouse. Conditions: 10 μM, 24 hours.
The test system of data set [4] is G0S2 mRNA. Put plainly: G0S2 mRNA in liver of normal mice. The data set is classed as in vivo, mouse. Conditions: normal ICR male mice, 15 mg/kg subcutaneous. Here is the method:
An effect of Compound No. 2 with a lower IC50 value on the expression level of G0S2 mRNA in the liver of normal mice was examined. Compound No. 2 was subcutaneously administered on the dorsal region of ICR male mice at a dose of 15 mg/kg. The expression level of G0S2 mRNA in the liver at 30 minutes, 1, 2, 4, 6, 12, and 24 hours after the administration of Compound No. 2 was measured.

The subject of data set [5] is G0S2 protein. Put plainly: G0S2 protein in liver of normal mice. The data set is classed as in vivo, mouse. Conditions: normal ICR male mice, 15 mg/kg subcutaneous, 4 hours and 6 hours after administration.
The test system of data set [6] is G0S2 protein. Put plainly: LPS-administered mice: G0S2 protein in liver (Western blotting). Conditions: LPS 10 μg/mouse tail vein; 5 mg/kg subcutaneous 1 hour after LPS; liver 5 hours later; vs LPS group. It is filed as in vivo. The method, then:
(§1) LPS (10 μg/mouse) was administered to ICR male mice by tail vein injection to prepare an LPS-administered group. In addition, a mouse to which physiological saline was administered instead of LPS was prepared and used as a control group. Subsequently, the LPS-administered group was divided into two groups, in which 1 hour after the administration of LPS, Compound No. 2 was subcutaneously administered at a dose of 5 mg/kg to the dorsal region of mice of one group which was then served as an LPS+No. 2-administered group. Subsequently, 5 hours after the administration of Compound No. 2, mice of each group were sacrificed and the liver was harvested.
Subsequently, the expression level of the G0S2 protein in the liver of mice of each group obtained was quantified by Western blotting. FIG. 11A is a graph showing the quantitative results of the G0S2 protein.

Another data set concerns p65 protein (NF-κB). The experiment in a line: LPS-administered mice: nuclear abundance of p65 protein in liver (Western blotting). It is filed as in vivo. Conditions: LPS 10 μg/mouse tail vein; 5 mg/kg subcutaneous 1 hour after LPS; liver 5 hours later; vs LPS group. The method, then: as §1
For the liver of mice of each group, the nuclear abundance of the p65 protein, which is one of the constituent proteins of NF-κB, was quantified by Western blotting. FIG. 11B is a graph showing the quantitative results of the p65 protein.

Data set [7] deals with neuropathic pain model mouse. The experiment in a line: Neuropathic pain model constructed by cancer transplantation. It is filed as in vivo. Conditions: tumor-bearing mice 2 weeks after cancer transplantation, 15 mg/kg subcutaneous, at 4, 6 and 8 hours. The method, then:
The neuropathic pain model constructed by cancer transplantation activates NF-κB. Therefore, a dose of 15 mg/kg of Compound No. 2 was subcutaneously administered to a model mouse in which the […] was carried out at 2 weeks after cancer transplantation and the pain intensity was measured to confirm that pain was induced.

A short description of data set [8]: Blood and liver concentration after oral administration (LC/MS/MS). The data set is classed as in vivo, mouse. Conditions: mice, 15 mg/kg oral. Here is the method:
Compound No. 2 (15 mg/kg) was orally administered to mice. Blood was collected at 0 minutes, 5 minutes, 15 minutes, 30 minutes, 1 hour, 2 hours, 4 hours, 6 hours and 12 hours after the administration of Compound No. 2 and the blood concentration of the compound was measured by LC/MS/MS. In addition, the liver was harvested at 0 minutes, 5 minutes, 15 minutes, 30 minutes, 1 hour and 6 hours after the administration of Compound No. 2, and the liver concentration of the compound was measured by LC/MS/MS.

The subject of the next data set is STAT5 protein. The experiment in a line: Nuclear abundance of STAT5 protein in NIH3T3 cells (Western blotting). The data set is classed as cell-based, mouse. Conditions: NIH3T3 cells, 2.5, 5 and 10 μM, 24 hours, vs control. Here is the method: Compound No. 2 or DMSO (control) at final concentrations of 2.5, 5 and 10 μM was added to the medium of NIH3T3 cells, which are mouse fibroblasts. Subsequently, the cells were recovered after 24 hours, the nuclear protein was prepared, and the abundance of the STAT5 protein was measured by Western blotting.

With `CCCCCCNC(=N)NCc1ccccc1` [Compound No. 2], the “G0S2 promoter (−2030→+10) activity (relative value)” value in data set [1] is given as “less than ½”. For the same compound, the Bmal1 promoter activity entry in the data set with Bmal1 promoter is listed as “no significant change”. Further, in the data set with G0S2 mRNA [2] (5 μM, vs DMSO), the “G0S2 mRNA expression level” value is “significant decrease”. The “effect of lowering the expression level of the G0S2 gene after transfection with siRNA against Hsd17b4” value in the data set with G0S2 mRNA [2] (10 μM) is “disappeared”. Moreover, the “expression level of the G0S2 gene” value in the data set with G0S2 mRNA [2] (10 μM, control siRNA) is listed as “significantly decreased”. Besides, the “expression level of nuclear receptor RARα mRNA” value in data set [3] is reported as “no change”. Further, the “expression level of G0S2 mRNA in the liver” value with G0S2 mRNA [4] (2 hours and 12 hours) is listed as “significantly decreased”. Besides, the “expression level of G0S2 mRNA in the liver” value in the data set on G0S2 mRNA [4] (4 hours after administration) is recorded as “tended to decrease to about half”. The “expression level of G0S2 protein in the liver” value with G0S2 protein [5] was “significant decrease”. The “expression of G0S2 protein in the liver” value with G0S2 protein [6] is “significantly inhibited”. In addition, in the data set with p65 protein (NF-κB), the “nuclear abundance of the p65 protein in the liver” value is “significantly decreased”. Besides, the “pain intensity (PWT) over time” value in data set [7] is “significantly relieved”. In data set [8], the “time after administration at which concentration in blood was highest” value stood at 15 min and the “time after administration at which concentration in liver was highest” value amounted to 5 min. Also, the “nuclear abundance of the STAT5 protein” value in the data set with STAT5 protein is given as “decreased in a dose-dependent manner”.
